# According to patent US10435369B2, “Tricyclic sulfones as ROR gamma modulators” (BRISTOL-MYERS SQUIBB COMPANY, priority 2016, dated 2019):
# Target: RORγ receptor (Homo sapiens, UniProt P51449)
# Experiment: RORγ Gal4 reporter assay (Gal4-luciferase, inverse agonist activity)
# Type: cell-based
# Details: Jurkat cells stably over-expressing hRORγ; Gal4-luciferase reporter; overnight incubation; read-out: RORγ Gal4, IC50
# Experimental: General RORγ Gal4 Reporter Assay
# IC50 values were determined.
# Chain of RORγ receptor (P51449 269-508): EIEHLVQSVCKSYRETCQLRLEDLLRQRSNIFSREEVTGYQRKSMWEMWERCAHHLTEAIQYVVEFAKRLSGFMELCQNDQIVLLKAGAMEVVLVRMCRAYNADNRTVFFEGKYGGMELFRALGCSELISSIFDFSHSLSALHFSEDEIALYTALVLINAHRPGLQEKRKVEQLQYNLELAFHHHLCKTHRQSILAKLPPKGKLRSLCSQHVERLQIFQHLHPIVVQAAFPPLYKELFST
row,Compound,IC50 [nM]
1,O=C(Nc1ccnc2[nH]ncc12)[C@@H]1CC[C@@]2(S(=O)(=O)c3ccc(F)cc3)c3ccc(C(F)(C(F)(F)F)C(F)(F)F)cc3CC[C@@H]12 [Example 27],48
2,O=C([C@@H]1CC[C@@]2(S(=O)(=O)c3ccc(F)cc3)c3ccc(C(F)(C(F)(F)F)C(F)(F)F)cc3CC[C@@H]12)N1CCS(=O)(=O)CC1 [Example 40],14
3,O=C([C@@H]1CC[C@@]2(S(=O)(=O)c3ccc(F)cc3)c3ccc(C(F)(C(F)(F)F)C(F)(F)F)cc3CC[C@@H]12)N1CC(F)(F)C(F)(F)C1 [Example 63],21
4,O=C([C@@H]1CC[C@@]2(S(=O)(=O)c3ccc(F)cc3)c3ccc(C(F)(C(F)(F)F)C(F)(F)F)cc3CC[C@@H]12)N1CC(F)(F)C[C@@H]1CO [Example 64],37
5,O=C([C@@H]1CC[C@@]2(S(=O)(=O)c3ccc(F)cc3)c3ccc(C(F)(C(F)(F)F)C(F)(F)F)cc3CC[C@@H]12)N1CCC(F)(F)C1 [Example 65],13
6,NC(=O)[C@H]1CC(F)(F)CN1C(=O)[C@@H]1CC[C@@]2(S(=O)(=O)c3ccc(F)cc3)c3ccc(C(F)(C(F)(F)F)C(F)(F)F)cc3CC[C@@H]12 [Example 66],15
7,CS(=O)(=O)N1CCC(NC(=O)[C@@H]2CC[C@@]3(S(=O)(=O)c4ccc(F)cc4)c4ccc(C(F)(C(F)(F)F)C(F)(F)F)cc4CC[C@@H]23)CC1 [Example 77],4
8,O=C([C@@H]1CC[C@@]2(S(=O)(=O)c3ccc(F)cc3)c3ccc(C(F)(C(F)(F)F)C(F)(F)F)cc3CC[C@@H]12)N1CCC2(CCNC2=O)CC1 [Example 82],18
9,O=C1CC2(CCN(C(=O)[C@@H]3CC[C@@]4(S(=O)(=O)c5ccc(F)cc5)c5ccc(C(F)(C(F)(F)F)C(F)(F)F)cc5CC[C@@H]34)CC2)CN1 [Example 83],9
10,O=C1CC2(CCN(C(=O)[C@@H]3CC[C@@]4(S(=O)(=O)c5ccc(F)cc5)c5ccc(C(F)(C(F)(F)F)C(F)(F)F)cc5CC[C@@H]34)CC2)N1 [Example 84],5
11,O=C([C@@H]1CC[C@@]2(S(=O)(=O)c3ccc(F)cc3)c3ccc(C(F)(C(F)(F)F)C(F)(F)F)cc3CC[C@@H]12)N1CCC2(CC1)CNC2=O [Example 85],14
12,O=C(O)C1CCN(C(=O)[C@@H]2CC[C@@]3(S(=O)(=O)c4ccc(F)cc4)c4ccc(C(F)(C(F)(F)F)C(F)(F)F)cc4CC[C@@H]23)C1 (some centres unmarked) [Example 91],40
13,O=C(O)C1CCN(C(=O)[C@@H]2CC[C@@]3(S(=O)(=O)c4ccc(F)cc4)c4ccc(C(F)(C(F)(F)F)C(F)(F)F)cc4CC[C@@H]23)C1 (some centres unmarked) [Example 92],41
14,O=C(O)C1CCCC(NC(=O)[C@@H]2CC[C@@]3(S(=O)(=O)c4ccc(F)cc4)c4ccc(C(F)(C(F)(F)F)C(F)(F)F)cc4CC[C@@H]23)C1 (some centres unmarked) [Example 98],22
15,O=C(O)C1CCCC(NC(=O)[C@@H]2CC[C@@]3(S(=O)(=O)c4ccc(F)cc4)c4ccc(C(F)(C(F)(F)F)C(F)(F)F)cc4CC[C@@H]23)C1 (some centres unmarked) [Example 99],14
16,O=C(O)C1CCCC(NC(=O)[C@@H]2CC[C@@]3(S(=O)(=O)c4ccc(F)cc4)c4ccc(C(F)(C(F)(F)F)C(F)(F)F)cc4CC[C@@H]23)C1 (some centres unmarked) [Example 100],53
17,O=C(N[C@H]1CC[C@H](C(=O)O)CC1)[C@@H]1CC[C@@]2(S(=O)(=O)c3ccc(F)cc3)c3ccc(C(F)(C(F)(F)F)C(F)(F)F)cc3CC[C@@H]12 [Example 102],33
18,O=C(NC12CCC(C(=O)O)(CC1)CC2)[C@@H]1CC[C@@]2(S(=O)(=O)c3ccc(F)cc3)c3ccc(C(F)(C(F)(F)F)C(F)(F)F)cc3CC[C@@H]12 [Example 103],31
19,C[C@H]1CN(C(=O)[C@@H]2CC[C@@]3(S(=O)(=O)c4ccc(F)cc4)c4ccc(C(F)(C(F)(F)F)C(F)(F)F)cc4CC[C@@H]23)CC[C@@H]1C(=O)O [Example 105],42
20,"O=C(N[C@@H]1CC[C@@]2(S(=O)(=O)c3ccc(F)cc3)c3ccc(C(F)(C(F)(F)F)C(F)(F)F)cc3CC[C@@H]12)C1(O)CCS(=O)(=O)CC1 [Example 123, N-((3R,3aS,9bS)-9b-((4-fluorophenyl)sulfonyl)-7-(perfluoropropan-2-yl)-2,3,3a,4,5,9b-hexahydro-1H-cyclopenta[a]naphthalen-3-yl)-4-hydroxytetrahydro-2H-thiopyran-4-carboxamide 1,1-dioxide]",2
21,CS(=O)(=O)N1CCC(O)(C(=O)N[C@@H]2CC[C@@]3(S(=O)(=O)c4ccc(F)cc4)c4ccc(C(F)(C(F)(F)F)C(F)(F)F)cc4CC[C@@H]23)CC1 [Example 124],7
22,O=C(O)[C@H]1CC[C@H](C(=O)N[C@@H]2CC[C@@]3(S(=O)(=O)c4ccc(F)cc4)c4ccc(C(F)(C(F)(F)F)C(F)(F)F)cc4CC[C@@H]23)CC1 [Example 139],24

row,Compound,IC50 [nM]
1,O=C(O)C1CC2(C1)CC(C(=O)N[C@@H]1CC[C@@]3(S(=O)(=O)c4ccc(F)cc4)c4ccc(C(F)(C(F)(F)F)C(F)(F)F)cc4CC[C@@H]13)C2 (some centres unmarked) [Example 141],7
2,O=C(N[C@@H]1CC[C@@]2(S(=O)(=O)c3ccc(F)cc3)c3ccc(C(F)(C(F)(F)F)C(F)(F)F)cc3CC[C@@H]12)C1(O)CCS(=O)(=O)CC1 [Example 144],40
3,Cc1ncn(C)c1C(=O)N[C@@H]1CC[C@@]2(S(=O)(=O)c3ccc(F)cc3)c3ccc(C(F)(C(F)(F)F)C(F)(F)F)cc3CC[C@@H]12 [Example 146],13
4,Cc1nnsc1C(=O)N[C@@H]1CC[C@@]2(S(=O)(=O)c3ccc(F)cc3)c3ccc(C(F)(C(F)(F)F)C(F)(F)F)cc3CC[C@@H]12 [Example 147],9
5,"O=C(N[C@@H]1CC[C@@]2(S(=O)(=O)c3ccc(F)cc3)c3ccc(C(F)(C(F)(F)F)C(F)(F)F)cc3CC[C@@H]12)C1CCS(=O)(=O)CC1 [Example 149, N-((3R,3aS,9bS)-9b-((4-fluorophenyl)sulfonyl)-7-(perfluoropropan-2-yl)-2,3,3a,4,5,9b-hexahydro-1H-cyclopenta[a]naphthalen-3-yl)tetrahydro-2H-thiopyran-4-carboxamide 1,1-dioxide]",9
6,O=C(N[C@@H]1CC[C@@]2(S(=O)(=O)c3ccc(F)cc3)c3ccc(C(F)(C(F)(F)F)C(F)(F)F)cc3CC[C@@H]12)[C@H](O)C(F)(F)F [Example 157],13
7,O=C(N[C@@H]1CC[C@@]2(S(=O)(=O)c3ccc(F)cc3)c3ccc(C(F)(C(F)(F)F)C(F)(F)F)cc3CC[C@@H]12)[C@@H](O)Cc1c[nH]cn1 [Example 158],14
8,NC(=O)c1c(F)cc(C(=O)N[C@@H]2CC[C@@]3(S(=O)(=O)c4ccc(F)cc4)c4ccc(C(F)(C(F)(F)F)C(F)(F)F)cc4CC[C@@H]23)cc1F [Example 159],3
9,O=C(N[C@@H]1CC[C@@]2(S(=O)(=O)c3ccc(F)cc3)c3ccc(C(F)(C(F)(F)F)C(F)(F)F)cc3CC[C@@H]12)c1cccnc1O [Example 161],16
10,O=C(O)c1ccc(C(=O)N[C@@H]2CC[C@@]3(S(=O)(=O)c4ccc(F)cc4)c4ccc(C(F)(C(F)(F)F)C(F)(F)F)cc4CC[C@@H]23)cc1 [Example 162],22
11,CS(=O)(=O)N1CC(O)(C(=O)N[C@@H]2CC[C@@]3(S(=O)(=O)c4ccc(F)cc4)c4ccc(C(F)(C(F)(F)F)C(F)(F)F)cc4CC[C@@H]23)C1 [Example 168],28
12,O=C(N[C@@H]1CC[C@@]2(S(=O)(=O)c3ccc(F)cc3)c3ccc(C(F)(C(F)(F)F)C(F)(F)F)cc3CC[C@@H]12)c1ccc(=O)[nH]c1 [Example 188],9
13,Cn1cc(C(=O)N[C@@H]2CC[C@@]3(S(=O)(=O)c4ccc(F)cc4)c4ccc(C(F)(C(F)(F)F)C(F)(F)F)cc4CC[C@@H]23)ccc1=O [Example 189],9
14,"O=C(O)[C@H]1CC[C@](O)(C(=O)N[C@@H]2CC[C@@]3(S(=O)(=O)c4ccc(F)cc4)c4ccc(C(F)(C(F)(F)F)C(F)(F)F)cc4CC[C@@H]23)CC1 [Example 191, (1s,4s)-4-(((3R,3aS,9bS)-9b-((4-fluorophenyl)sulfonyl)-7-(perfluoropropan-2-yl)-2,3,3a,4,5,9b-hexahydro-1H-cyclopenta[a]naphthalen-3-yl)carbamoyl)-4-hydroxycyclohexane-1-carboxylic acid]",54
15,O=C(O)[C@H]1CC[C@](F)(C(=O)N[C@@H]2CC[C@@]3(S(=O)(=O)c4ccc(F)cc4)c4ccc(C(F)(C(F)(F)F)C(F)(F)F)cc4CC[C@@H]23)CC1 [Example 192],24
16,O=C(O)C12C3C4C1C1C2C3C41C(=O)N[C@@H]1CC[C@@]2(S(=O)(=O)c3ccc(F)cc3)c3ccc(C(F)(C(F)(F)F)C(F)(F)F)cc3CC[C@@H]12 (some centres unmarked) [Example 193],97
17,C[C@H]1C[C@H](C(=O)O)CC[C@H]1C(=O)N[C@@H]1CC[C@@]2(S(=O)(=O)c3ccc(F)cc3)c3ccc(C(F)(C(F)(F)F)C(F)(F)F)cc3CC[C@@H]12 [Example 194],32
18,CC(C)(N)C(=O)N[C@@H]1CC[C@@]2(S(=O)(=O)c3ccc(F)cc3)c3ccc(C(F)(C(F)(F)F)C(F)(F)F)cc3CC[C@@H]12 [Example 197],30
19,CC(C)(N)[C@H](N)C(=O)N[C@@H]1CC[C@@]2(S(=O)(=O)c3ccc(F)cc3)c3ccc(C(F)(C(F)(F)F)C(F)(F)F)cc3CC[C@@H]12 [Example 198],17
20,CC(C)(C(=O)N[C@@H]1CC[C@@]2(S(=O)(=O)c3ccc(F)cc3)c3ccc(C(F)(C(F)(F)F)C(F)(F)F)cc3CC[C@@H]12)N1CCNCC1 [Example 200],63
21,"CS(=O)(=O)N[C@@H]1CC[C@@]2(S(=O)(=O)c3ccc(F)cc3)c3ccc(C(F)(C(F)(F)F)C(F)(F)F)cc3CC[C@@H]12 [Example 201, N-((3R,3aS,9bS)-9b-((4-fluorophenyl)sulfonyl)-7-(perfluoropropan-2-yl)-2,3,3a,4,5,9b-hexahydro-1H-cyclopenta[a]naphthalen-3-yl)methanesulfonamide]",7
22,CC1(O)CN(C(=O)N[C@@H]2CC[C@@]3(S(=O)(=O)c4ccc(F)cc4)c4ccc(C(F)(C(F)(F)F)C(F)(F)F)cc4CC[C@@H]23)C1 [Example 204],9
